Among the test systems are HT29 colon; M14 melanoma; MALME-3M melanoma; MDA-MB-231 breast; NCI-H226 lung; OVCAR-3 ovarian; RPMI-8226 leukemia; SF-295 CNS; SF-539 CNS; T-47D breast.
Experiment in all cases: growth of human tumour cells (NCI), 48 h

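In this assay, cells in 96-well plates receive the compound at five concentrations for 48 hours. Endpoints are linearly interpolated between the surrounding concentrations. TGI: concentration producing complete growth inhibition.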

As for `Nc1nc(Nc2cc(F)c(Cl)c(F)c2)cc(=O)[nH]1`, the TGI in the experiment with HT29 colon, in the experiment with M14 melanoma, in the experiment on MALME-3M melanoma, in the experiment with MDA-MB-231 breast, with NCI-H226 lung and with OVCAR-3 ovarian was above 100 µM each time. Besides, the TGI in the experiment on RPMI-8226 leukemia, in the experiment on SF-295 CNS, in the experiment on SF-539 CNS and with T-47D breast was above 100 µM throughout.
In the case of `Nc1c(/C=C/c2cc3cc(C4=NCCN4)ccc3o2)[nH]c2cc(C3=NCCN3)ccc12`, the TGI in the experiment with HT29 colon, in the experiment on M14 melanoma, in the experiment with MDA-MB-231 breast, in the experiment with NCI-H226 lung, with OVCAR-3 ovarian and in the experiment on RPMI-8226 leukemia was above 100 µM throughout. In addition, the TGI in the experiment with SF-295 CNS, in the experiment with SF-539 CNS and in the experiment on T-47D breast was above 100 µM each time.
For `C[C@@H](c1ccccc1)N(CC#N)[C@H]1CCC[C@]1(O)/C=C/c1ccc2c(c1)OCO2`, the TGI in the experiment with HT29 colon, in the experiment on M14 melanoma, in the experiment with MALME-3M melanoma, in the experiment with MDA-MB-231 breast, in the experiment with NCI-H226 lung and in the experiment with RPMI-8226 leukemia was above 25 µM in each case. Also, the TGI in the experiment with SF-295 CNS and in the experiment with T-47D breast was above 25 µM in each case.
Regarding `N=c1sc(N2CCOCC2)nn1CC(=O)c1ccccc1`, the TGI in the experiment on HT29 colon, in the experiment on M14 melanoma, in the experiment on MALME-3M melanoma, with MDA-MB-231 breast, with NCI-H226 lung and in the experiment on OVCAR-3 ovarian was above 100 µM in each case. Also, the TGI in the experiment on RPMI-8226 leukemia, with SF-295 CNS and in the experiment with T-47D breast was above 100 µM in each case.
For the compound `CN(C)c1ccc(/C=C2\CCCCCC2=O)cc1`, the TGI in the experiment with HT29 colon, with M14 melanoma, in the experiment with MALME-3M melanoma, in the experiment with MDA-MB-231 breast, in the experiment with OVCAR-3 ovarian and in the experiment with RPMI-8226 leukemia was above 100 µM in each case. The TGI in the experiment on SF-295 CNS, in the experiment with SF-539 CNS and with T-47D breast was above 100 µM in each case.
With `Cn1c(=O)c2c(n(C)c1=O)n1c(=O)c3ccccc3nc1n2C`, the TGI was above 100 µM in the experiment with HT29 colon; above 100 µM with M14 melanoma; above 100 µM in the experiment on MDA-MB-231 breast; 73.2 µM in the experiment on NCI-H226 lung; above 100 µM in the experiment on OVCAR-3 ovarian; above 100 µM in the experiment with RPMI-8226 leukemia. The TGI with SF-295 CNS, with SF-539 CNS and in the experiment with T-47D breast was above 100 µM throughout.
Turning to `O=CC12CCCN1CCC2`, the TGI in the experiment with HT29 colon, with M14 melanoma, with MALME-3M melanoma, in the experiment with MDA-MB-231 breast, in the experiment with NCI-H226 lung and with OVCAR-3 ovarian was above 100 µM throughout. For the same compound, the TGI with SF-295 CNS and in the experiment with T-47D breast was above 100 µM in each case.
On to `CO/C(N)=C(\C#N)N=Cc1cccs1`, for which the TGI in the experiment on HT29 colon, in the experiment with M14 melanoma, in the experiment on MALME-3M melanoma, in the experiment on MDA-MB-231 breast, in the experiment with NCI-H226 lung and in the experiment with OVCAR-3 ovarian was above 100 µM in each case. Besides, the TGI in the experiment on SF-295 CNS, with SF-539 CNS and in the experiment on T-47D breast was above 100 µM throughout.
Consider `CC(C)(C)OC(=O)NCCCCC1NC(=O)[C@@H]2Cc3c([nH]c4ccccc34)C(c3ccccc3)N2C1=O` (stereo partly specified), for which the TGI was 87.5 µM in the experiment with HT29 colon; 92.3 µM in the experiment on M14 melanoma; above 100 µM with MALME-3M melanoma; 94.6 µM in the experiment with MDA-MB-231 breast; above 100 µM in the experiment on NCI-H226 lung; 49.2 µM in the experiment with OVCAR-3 ovarian. The TGI is above 100 µM in the experiment on RPMI-8226 leukemia, 45.4 µM in the experiment on SF-295 CNS and above 100 µM with T-47D breast.
Regarding `Cc1ccc(C(=O)C2CC3(CCC2(O)c2ccc(C)cc2)CC(=O)Nc2ccccc2C3=O)cc1` (stereo unspecified), the TGI in the experiment on HT29 colon, in the experiment on M14 melanoma, in the experiment on MALME-3M melanoma, in the experiment on MDA-MB-231 breast, with NCI-H226 lung and in the experiment on OVCAR-3 ovarian was above 100 µM each time. Moreover, the TGI in the experiment on SF-295 CNS, with SF-539 CNS and with T-47D breast was above 100 µM each time.
For `Oc1[nH]c2ccccc2c1N=Nc1nc(-c2ccccc2)cs1`, the TGI with HT29 colon was above 100 µM; in the experiment with M14 melanoma it was above 100 µM; in the experiment on MDA-MB-231 breast it was 99.7 µM; with NCI-H226 lung it was above 100 µM; in the experiment on OVCAR-3 ovarian, above 100 µM; in the experiment on SF-295 CNS it was 63.1 µM. Further, the TGI in the experiment with SF-539 CNS was 28.9 µM; with T-47D breast it was above 100 µM.
In the case of `CC1SCCc2nc3ccccc3n21` (stereo unspecified), the TGI in the experiment on HT29 colon, in the experiment on M14 melanoma, with MDA-MB-231 breast, with NCI-H226 lung, in the experiment on OVCAR-3 ovarian and with RPMI-8226 leukemia was above 100 µM throughout. The TGI in the experiment with SF-295 CNS, with SF-539 CNS and with T-47D breast was above 100 µM throughout.
Turning to `O=C(NCc1ccc(Cl)c(Cl)c1)c1nc2ccccc2nc1NCc1ccc(Cl)c(Cl)c1`, the TGI in the experiment with HT29 colon, in the experiment with M14 melanoma, with MDA-MB-231 breast, in the experiment on NCI-H226 lung, with OVCAR-3 ovarian and in the experiment on SF-295 CNS was above 100 µM in each case. Also, the TGI with SF-539 CNS and in the experiment with T-47D breast was above 100 µM in each case.
For the compound `CCN(CCCl)c1ccc(NC(=O)c2cc(C(=O)NCCN(C)C)cc(C(=O)Nc3ccc(N(CC)CCCl)cc3)c2)cc1`, the TGI with HT29 colon came to 11.8 µM; with M14 melanoma it was 28.2 µM; in the experiment with MALME-3M melanoma it was 34.5 µM; in the experiment with MDA-MB-231 breast it was 34.9 µM; in the experiment on NCI-H226 lung it was 25.1 µM; in the experiment with RPMI-8226 leukemia, 23.6 µM. The TGI is 72.3 µM in the experiment with SF-295 CNS, 12.3 µM in the experiment with SF-539 CNS and 53.9 µM with T-47D breast.
On to `O=C(C[N+]1(c2ccccc2)CCOCC1)c1ccccc1`, for which the TGI in the experiment on HT29 colon, with M14 melanoma, in the experiment with MALME-3M melanoma, in the experiment on MDA-MB-231 breast, with NCI-H226 lung and in the experiment on OVCAR-3 ovarian was above 100 µM throughout. Further, the TGI in the experiment on SF-295 CNS and with T-47D breast was above 100 µM each time.

These data come from PubChem BioAssay (NCI).
